Values of other authors as cited in patent US20260027218A1, “STAR-SHAPED GRAFT COPOLYMERS” (POLYPEPTIDE THERAPEUTIC SOLUTIONS, S.L., priority 2022, published 2026).

CCN(CC)c1ccc2nc3c4ccccc4c(=O)cc-3oc2c1 [Nile Red]
log P: 2.98
